For the test, the target named is T1, His6-PDK1 (aa 52-556) (Homo sapiens, UniProt O15530).
T1 construct: 15 μL His6-PDK1 (aa 52-556) 3.33 ng/well); host or cells: baculovirus-infected insect cells
T1 sequence (O15530 52-556): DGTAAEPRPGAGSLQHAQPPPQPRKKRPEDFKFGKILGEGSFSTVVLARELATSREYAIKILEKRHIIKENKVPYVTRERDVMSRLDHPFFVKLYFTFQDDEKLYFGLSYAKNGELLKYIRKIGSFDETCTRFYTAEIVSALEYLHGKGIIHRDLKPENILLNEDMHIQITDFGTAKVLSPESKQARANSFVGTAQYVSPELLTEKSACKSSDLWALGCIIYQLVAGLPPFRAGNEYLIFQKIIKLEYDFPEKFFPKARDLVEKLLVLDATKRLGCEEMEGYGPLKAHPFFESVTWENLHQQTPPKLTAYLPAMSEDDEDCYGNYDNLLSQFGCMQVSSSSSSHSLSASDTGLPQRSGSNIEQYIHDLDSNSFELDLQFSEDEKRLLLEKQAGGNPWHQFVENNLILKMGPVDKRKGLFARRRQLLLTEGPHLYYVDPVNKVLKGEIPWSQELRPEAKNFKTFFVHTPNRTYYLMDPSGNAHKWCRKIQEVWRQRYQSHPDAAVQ
As to the kind of experiment: PDK1 kinase assay III (with Tween 20). The class given is biochemical. The note with it: compound at 10 μM; PDK1 kinase assay III (values without asterisk); read-out: % CTL (residual activity of the enzyme relative to DMSO control). As for the experimental part: Purified enzyme may be obtained for example from the University of Dundee, Scotland.
Another PDK1 assay was developed which by comparison with PDK1 assay 1 additionally contains Tween 20:
The final concentration of Tween 20 is 0.005%.
The reaction is started by adding the ATP solution and the mixture is incubated for 90 min at ambient temperature; at the start of the reaction the dishes are shaken gently. The reaction is stopped by the addition of 50 μL/well of 500 mM phosphoric acid (H3PO4) and incubated for about 20 min at ambient temperature. […] The measured data are evaluated using Graphpad Prism software.
The % CTL values indicate the residual activity of the enzyme after the addition of the inhibitory compound in the solvent DMSO in relation to the enzyme activity in the solvent DMSO without the addition of a compound (control). The majority of the values were determined using the PDK1 kinase assay III described hereinbefore. The values marked with an asterisk (* or**) were determined using the PDK1 kinase assay II described hereinbefore (one asterisk→incubation for 24 h; two asterisks→incubation for 5 min)
In the case of `Cc1c(C(=O)NCc2ccc(-c3cnc4[nH]ccc4c3)s2)c(=O)n(Cc2ccc(F)c(F)c2)n1C` [IV-42, 2-(3,4-difluorobenzyl)-1,5-dimethyl-3-oxo-N-{[5-(1H-pyrrolo[2,3-b]pyridin-5-yl)thiophen-2-yl]methyl}-2,3-dihydro-1H-pyrazole-4-carboxamide], the remaining activity at 10 µM was determined as 27.7%.

On to `Cc1c(C(=O)NCC#Cc2ccc3c(-c4ccco4)n[nH]c3c2)c(=O)n(Cc2ccc(F)c(F)c2)n1C` [II-5, 2-(3,4-difluorobenzyl)-N-{3-[3-(furan-2-yl)-1H-indazol-6-yl]prop-2-yn-1-yl}-1,5-dimethyl-3-oxo-2,3-dihydro-1H-pyrazole-4-carboxamide], for which the remaining activity at 10 µM was determined as 22.7%.

With `COc1ccc(Nc2ncc3cc(/C=C/CNC(=O)c4cncn(Cc5ccc(F)c(F)c5)c4=O)ccc3n2)cc1`, the remaining activity at 10 µM was 13.8%.

Regarding `COC(=O)c1ccc(Nc2ncc3cc(/C=C/CNC(=O)c4cncn(Cc5ccc(F)c(F)c5)c4=O)ccc3n2)cc1Cl`, the remaining activity at 10 µM worked out at 22.5%.

For the molecule `Cc1c(C(=O)NCC#Cc2ccc3nc(Nc4ccc(N(C)C5CCN(C)CC5)cc4)ncc3c2F)c(=O)n(Cc2ccc(F)c(F)c2)n1C` [III-27, 2-(3,4-difluorobenzyl)-N-{3-[5-fluoro-2-({4-[methyl(1-methylpiperidin-4-yl)amino]phenyl}amino)quinazolin-6-yl]prop-2-yn-1-yl}-1,5-dimethyl-3-oxo-2,3-dihydro-1H-pyrazole-4-carboxamide], the remaining activity at 10 µM is 12.8%.

On to `CNc1ncc2cc(/C=C/CNC(=O)c3c(C)n(C)n(Cc4ccc(F)c(F)c4)c3=O)ccc2n1`, for which the remaining activity at 10 µM was 16.1%.

Take `COCCCN(C)C(=O)c1ccc(Nc2ncc3cc(C#CCNC(=O)c4c(C)n(C)n(Cc5ccc(F)c(F)c5)c4=O)ccc3n2)cc1`: the remaining activity at 10 µM was found to be 16%.

Regarding `O=C1Nc2cc(/C=C/CNC(=O)c3cncn(Cc4ccc(F)c(F)c4)c3=O)ccc2/C1=C/c1cnc[nH]1` [I-2, 1-(3,4-difluorobenzyl)-N-{(2E)-3-[(3Z)-3-(1H-imidazol-5-ylmethylidene)-2-oxo-2,3-dihydro-1H-indol-6-yl]prop-2-en-1-yl}-6-oxo-1,6-dihydropyrimidine-5-carboxamide], the remaining activity at 10 µM worked out at 12.2%.

In the case of `COc1cc(/C=C/CNC(=O)c2cncn(Cc3ccc(F)c(F)c3)c2=O)cc2cnc(Nc3ccc(CN(C)C)cc3)nc12` [IV-18, 1-(3,4-difluorobenzyl)-N-{(2E)-3-[2-({4-[(dimethylamino)methyl]phenyl}amino)-8-methoxyquinazolin-6-yl]prop-2-en-1-yl}-6-oxo-1,6-dihydropyrimidine-5-carboxamide], the remaining activity at 10 µM was 15%.

As to `COc1cc(Nc2ncc3cc(/C=C/CNC(=O)c4c(C)n(C)n(Cc5ccc(F)c(F)c5)c4=O)ccc3n2)ccc1C(=O)NC1CCN(C)CC1`, the remaining activity at 10 µM is 10.2%.

Consider `CN(C)Cc1ccc(Nc2ncc3cc(C#CCNC(=O)c4cncn(Cc5ccc(F)c(F)c5)c4=O)ccc3n2)cc1` [III-16, 1-(3,4-difluorobenzyl)-N-{3-[2-({4-[(dimethylamino)methyl]phenyl}amino)quinazolin-6-yl]prop-2-yn-1-yl}-6-oxo-1,6-dihydropyrimidine-5-carboxamide], for which the remaining activity at 10 µM is 9.5%.

`CNc1ncc2cc(/C=C/CNC(=O)c3cncn(Cc4ccc(F)c(F)c4)c3=O)cc(OCCN)c2n1` [III-59]: the remaining activity at 10 µM is 18.3%.

For `Cc1c(C(=O)NC/C=C/c2ccc3nc(Nc4ccc(CN(C)C)cc4)ncc3c2)c(=O)n(Cc2ccccc2)n1C` [IV-19, 2-benzyl-N-{(2E)-3-[2-({4-[(dimethylamino)methyl]phenyl}amino)quinazolin-6-yl]prop-2-en-1-yl}-1,5-dimethyl-3-oxo-2,3-dihydro-1H-pyrazole-4-carboxamide], the remaining activity at 10 µM amounted to 12.6%.

Values taken from patent publication US20110313156A1 (BOEHRINGER INGELHEIM INTERNATIONAL GMBH, priority 2008, published 2011).
